Biological target: T1, Thermovibrio ammonificans THI4 (TaTHI4) (Thermovibrio ammonificans, UniProt E8T346)
T1 construct: N-terminal His6 tag (pBAD24, recoded gene), E. coli BL21(DE3); homooctamer, four monomers per asymmetric unit; anaerobically reconstituted with Fe(II), NAD+ and glycine
Experiment: X-ray crystallography, […] A
Format: binding
Settings: reaction intermediate formed from NAD+ and glycine; Fe(II)-reconstituted, anaerobic; pH 7.5, 22 °C; active site, pincer-type ligand of Fe(II)

In the case of `CC(N=CC(=O)O)C(=O)C(O)COP(=O)(O)OP(=O)(O)OC[C@H]1O[C@@H](n2cnc3c(N)ncnc32)[C@H](O)[C@@H]1O` (stereo partly shown) [glycine imine intermediate], the “X-ray crystallography, 2.3 A” value is reported as “Clear density for the TaTHI4 treated with NAD and glycine shows the expected glycine imine”.

Reference: paper PMC8454699, “Structure and function of aerotolerant, multiple-turnover THI4 thiazole synthases” (Biochemical Journal, 2021)
